Data published in patent US10292597B2, “Assessing endothelial function and providing calibrated UFMD data using a blood pressure cuff” (The Regents of the University of California, priority 2015, dated 2019).
Entries after “also recorded” stand apart in the source; their conditions may differ.

Assays:
[1] = tested on: NO synthase; assay: Single pulse waveforms from the pressure cuff after endothelial stimulation, with NO synthase inhibitor; format: in vivo, human; settings: cuff inflated to 70 mm Hg; FIG. 3
Excerpt: Both the amplitude and slope of the rising edge of the pulse increase markedly after endothelial stimulation.
In an artery with intact endothelial function, both pulse height (maximal cross-sectional arterial area) and compliance (maximum slope of the rising edge) increase markedly over baseline. […] FIG. 4 illustrates how a five minute cuff occlusion and the ensuring reactive hyperemia lead to major increases in area change per pulse and the maximum derivative of the area per pulse. Both metrics return to baseline levels after 20 minutes. FIG. 5 confirms the repeatability of the protocol by illustrating the effects of a series of two cuff occlusion periods. We see from FIG. 6 that only a small slow drift in the measured quantities occurs when no reactive hyperemic stimulus is applied.
A stimulus is then applied to the subject. Any of a number of stimuli expected to alter endothelial function are contemplated. Such stimuli include, for example, occlusion of blood flow, and/or application of one or more drugs to the subject. Illustrative drugs include, for example, drugs that act as NO agonists (e.g. acetylcholine), β2-adrenergic agonists such as albuterol, acoustic/mechanical tissue vibration, transcutaneous low frequency ultrasound (see, e.g., Iida et al. (2006) J. Amer. Coll. Cardiol., 48(3): 532-537), and the like. […]

[2] = tested on: brachial artery; assay: Cuff-based measurement of pulse amplitude (proportional to arterial area) before and after a stimulus; format: in vivo, human
Experimental: Three individuals in the age-range of 28-38 were examined. All subjects had Framingham risk scores of 1% or less, and had no history of cardiovascular disease. Each individual was assessed at least three times before and after RH induced by five minutes of suprasystolic cuff occlusion. At least one additional measurement was made using the same protocol, except without cuff inflation. Sensitivity to a 0.4 mg dose of sublingual NG was assessed three times in two individuals.
Sensitivity to a 0.4 mg dose of sublingual NG was assessed three times in two individuals. In the analysis that follows, all of the datasets are pooled by stimulus. This addresses the question: Can the method measure changes in arterial tone due to vasorelaxatory stimuli and with what sensitivity?
A single quantity relating to the recorded pressure data, the pulse amplitude, was studied and it was posited that this is proportional to the arterial area. During the post stimulus interval, pressure data from the cuff were recorded approximately every 80 seconds, for a period of 30 seconds. During each recording interval, the cuff was inflated to 70 mm Hg, which was always below the measured diastolic pressure of the subject. To quantify the observed response, the mean of the pulse quantity (in this case, amplitude) during the response interval was divided by the mean value of the same quantity during the baseline interval. FIG. 10 illustrates the results.
In Table 2, the maximum response for each stimulus is calculated and the statistical significance of the change relative to the NS case (one-tail Student's t test) is evaluated. Values of p<0:05 were considered significant.
(iii) The cuff is inflated to a value Pm, which must be less than the mean arterial pressure, for a period Tm=30 s. During this time interval, we measure and record the pressure fluctuations in the cuff.
v) The stimulus is applied. This is either 1-5 min of cuff occlusion to suprasystolic pressure Ps (for studies of endothelial function) or a dose of sublingual NG (for studies of endothelium-independent vasodilation).
(vi) After Tp=45 s have elapsed following cuff release or drug administration, a series of up to Nr=10 repeat measurement intervals ensue. In each interval, the cuff is inflated to Pm for Tm seconds, after which it is deflated for Tw seconds. This large number of repeat measurements (Nr) is required only when one wishes to record the return of the vessel toward baseline.
(viii) Each post-stimulus response is then compared to the average baseline response, to yield the area-based cFMD metric (Equation 2) defined above. […]
(iv) The maximum of the cFMD metric in Equation 2, analogous to that used for uFMD, expressed directly as a function of the measurement data, is calculated as […]

[3] = tested on: arterial smooth muscle; settings: cited from earlier work

Structure (SMILES) | effect on increase of pulse amplitude and rising-edge slope after endothelial stimulation [1] | change in metric, NG vs. NS ([2]; 400 μg sublingual vs zero dose (no stimulus)) | cDmax % ([2]; 400 μg sublingual, Table 5) | Mean ± SEM of maximum response over all data sets (dilation response) ([2]; 400 μg sublingual, pooled data sets, Table 5) | Mean ± SEM of maximum Response over all data sets (amplitude response, response/baseline) ([2]; 0.4 mg sublingual, cuff inflated to 70 mm Hg, pooled data sets, Table 2) | smooth muscle dilation elicited ([3]; 400 μg sublingual dose, Feldman et al. (1979), Adams et al. (1998)) | typical dilation due to nitroglycerin ([3]; observed at Ptm=PS)
COC(=O)[C@@H](N)CCCNC(=N)N[N+](=O)[O-] [L-NAME] | greatly attenuates this response; also recorded: greatly attenuated |  |  |  |  |  | 
O=[N+]([O-])OCC(CO[N+](=O)[O-])O[N+](=O)[O-] [NG, Nitroglycerin] |  | 70% | 70% | 1.70 ± 0.036 | 1.70 ± 0.036 | maximal smooth muscle dilation | ≈ 20%
